Assay [1] has as its system Mycobacterium tuberculosis H37Rv growth in 7H9 medium. Kind of assay: growth inhibition of Mycobacterium tuberculosis, dose response, 7H9 medium, purified and synthesized compounds, set 2 (AID 504556). To be noted: for IC90: measured here: M. tuberculosis growth IC90.
Test in assay [2]: as above
To be noted: Mycobacterium tuberculosis H37Rv growth in 7H9 medium; at 25 µM (top of the series).

Molecules are shown by their SMILES. The source made the active and inactive calls. The rule behind the calls is not given here. Residues, ends and D or L forms follow the SMILES beside them. *: point of attachment. Cbz = O=C(OCc1ccccc1)*

Regarding `CCOC(=O)COn1c2c(c3c4no[n+]([O-])c4ccc31)CCCC2`, in assay [1], the IC50 (usually the concentration that inhibits the measured activity by half) is 1730 nM and the IC90 (in general, the point of the concentration-response curve where the effect stands at 90%) was found to be 3680 nM.

In the case of `COC(=O)c1cc(=O)n(-c2ccc(F)cc2)c(=Nc2ccc(F)cc2)s1`, in assay [1], the IC50 was 150 nM and the IC90 was 1460 nM.

As to `CCc1ccc(/C=C2/C(=O)N(C)C(=S)N2CC(=O)OC)s1`, in assay [1], the IC50 is 190 nM and the IC90 worked out at 3110 nM.

Regarding `O=C(/C=C\c1cccs1)N1CCN(Cc2ccc3c(c2)OCO3)CC1`, in assay [1], the IC50 was 330 nM and the IC90 amounted to 1970 nM.

Turning to `COC(=O)CCc1nc2c(C#N)c(-c3ccc(Cl)cc3)ccn2n1`, in assay [1], the IC50 was 1110 nM and the IC90 worked out at 2460 nM.

As to `Cc1ccc(NC(=O)C2C3/C=C\CCCCC32)cc1C` (stereo not given), in assay [1], the IC50 was 1490 nM and the IC90 stood at 4010 nM.

`O=C(CSc1nc2ccccc2c(=O)[nH]1)NC1CCCCC1`: in assay [1], the IC50 is < 10 nM and the IC90 was < 10 nM.

As for `CCOC(=O)C(C)Sc1ncnc2c1nnn2-c1ccc(F)cc1` (stereo not given), in assay [1], the IC50 is 70 nM and the IC90 was 3420 nM.

As to `CNc1nc(SCc2ccccc2Cl)nc2c1CCCC2`, in assay [1], the IC50 is 680 nM and the IC90 amounted to 1910 nM.

Regarding `c1ccc(/N=C2\N=C(Nc3ccccn3)c3ccccc32)nc1`, in assay [1], the IC50 is < 10 nM and the IC90 is < 10 nM.

Consider `Oc1ccccc1/C=N/Nc1ccnc(SCc2ccccc2)n1`, for which the growth inhibition in assay [2] was 19.3% (inactive).

Regarding `CC[N+](C)(CC)CCCCOc1ccc2c(c1)C(=O)c1cc(OCCCC[N+](C)(CC)CC)ccc1-2`, in assay [1], the IC50 was 770 nM and the IC90 was found to be 1220 nM.

For the molecule `CCOC1OC(=O)C(Cl)=C1Nc1ccccc1C` (stereo not given), in assay [1], the IC50 is 2020 nM and the IC90 is 9040 nM.

Turning to `COC(=O)C(Nc1nc(SCC(=O)NC2CCCCC2)nc2ccccc12)c1ccccc1` (stereo not given), the growth inhibition in assay [2] is 2.12% (inactive).

Turning to `CCOC(=O)CNC(=O)[C@H](Cc1ccccc1)NC(=O)OCc1ccccc1` (Cbz-Phe-Gly-OEt), in assay [1], the 50% inhibitory concentration (IC50) is 610 nM and the IC90 stood at 1220 nM.

As to `COC(=O)c1ccc(CNc2c(N3CCCC3)c(=O)c2=O)cc1`, the growth inhibition in assay [2] is 0.86% (inactive).

For the molecule `Cc1cc(Br)ccc1NC(=O)c1cnc(N2CCN(c3ccccn3)CC2)c2ccccc12`, in assay [1], the IC50 is 180 nM and the IC90 came to 1470 nM.

Regarding `O=C(/C=C/c1ccccc1)N1CCN(CCN2C(=O)c3cccc4cccc(c34)C2=O)CC1`, in assay [1], the IC50 was 1290 nM and the IC90 came out at 3470 nM.

For the molecule `CC(C)NC(=O)c1sc(=S)n2c1[nH]c(=O)c1ccc(C(=O)NCCc3ccc(Cl)cc3)cc12`, in assay [1], the half-inhibitory concentration (IC50) is 80 nM and the IC90 was determined as 230 nM.

Consider `Cc1nn2c(NCc3ccccn3)cc(C(C)C)nc2c1-c1ccccc1`, for which, in assay [1], the IC50 is 510 nM and the IC90 worked out at 820 nM.

Take `CC(=NCc1ccc2c(c1)OCO2)C1=C(O)c2ccccc2C1=O`: in assay [1], the IC50 is 400 nM and the IC90 turned out to be 6040 nM.

On to `Cc1cccc(/C=C/C(=O)c2ccc([N+](=O)[O-])o2)c1`, for which, in assay [1], the IC50 is < 10 nM and the IC90 is < 10 nM.

On to `CCOC(=O)COc1ccc(/C=C2\NC(=S)N(CC)C2=O)cc1`, for which, in assay [1], the IC50 was 820 nM and the IC90 amounted to 6190 nM.

Turning to `COC(=O)C1CC(=O)N(c2ccc(OCc3ccccc3Cl)cc2)C1` (stereo not given), in assay [1], the IC50 was 220 nM and the IC90 was 3840 nM.

As to `CC1CCN(C(=O)C2CCN(c3nnc(-n4cccc4)s3)CC2)CC1`, in assay [1], the IC50 was 890 nM and the IC90 worked out at 2230 nM.

For the molecule `O=C(CSc1nc2ccccc2c(=O)[nH]1)NCc1ccc(Cl)cc1`, in assay [1], the IC50 was 160 nM and the IC90 turned out to be 720 nM.

Regarding `CCOC(=O)c1ccc(NC(=O)Cn2ncc(Cl)c(Cl)c2=O)cc1`, in assay [1], the IC50 was 70 nM and the IC90 was found to be 480 nM.

`S=c1nc[nH]c2nc[nH]c12`: in assay [1], the half-inhibitory concentration (IC50) was 950 nM and the IC90 was 1570 nM.

In the case of `Cc1ccc(C(=O)N/N=C(/CC(=O)c2cccs2)C(F)(F)F)cc1`, in assay [1], the IC50 was 540 nM and the IC90 amounted to 1050 nM.

Regarding `CCC(C)Nc1ccc(NC(C)CC)cc1` (stereo not given), in assay [1], the IC50 was 320 nM and the IC90 amounted to 590 nM.

Consider `O=C(NCC(c1cccs1)N1CCOCC1)c1cc([N+](=O)[O-])cc([N+](=O)[O-])c1` (stereo not given), for which, in assay [1], the IC50 was 90 nM and the IC90 was found to be 190 nM.

Take `Cc1cccc(-c2oc3ccc(-c4ccc5c(c4)OCO5)cc3c2C#Cc2cncn2C)c1`: in assay [1], the IC50 is 2360 nM and the IC90 turned out to be 3220 nM.

As to `Cc1ccc2ccc3ccc(C)nc3c2n1`, in assay [1], the IC50 is 50 nM and the IC90 was determined as 230 nM.

Take `COC(=O)C(C)Oc1ccc(-c2nccc(-c3ccccn3)n2)cc1` (stereo not given): in assay [1], the IC50 is 1170 nM and the IC90 is 2590 nM.

As to `O=C1C(Br)=Cc2cccc3cccc1c23`, in assay [1], the IC50 was 20 nM and the 90% effect concentration (IC90) was determined as 1080 nM.

For `COc1cc(NC(=O)C/C(C)=N/NC(=O)c2ccccn2)c(OC)cc1Cl`, in assay [1], the IC50 is 990 nM and the IC90 came to 3040 nM.

For the molecule `Cc1ccc2c(c1)c(C1=c3ccccc3=NC1=O)c(O)n2C`, in assay [1], the IC50 is 250 nM and the IC90 came to 1720 nM.

For the molecule `Cc1nc(SCC(=O)NC2CCCCC2)[nH]c(=O)c1C`, in assay [1], the IC50 is 40 nM and the IC90 was 1030 nM.

In the case of `Nc1c(C(=O)NC2CCCCC2)nsc1C(=O)OCC(=O)NC1CCCCC1`, in assay [1], the IC50 was 380 nM and the IC90 is 2090 nM.

Source of the values: PubChem BioAssay AID504556 (Southern Research Specialized Biocontainment Screening …, 2011).
